According to ChEMBL document CHEMBL5260832, “Hepatoprotective natural triterpenoids” (Eur J Med Chem, 2018):

Columns and labels:
HepG2 [1] = test: Hepatoprotective activity against H2O2-induced cell death in human HepG2 cells assessed as elevated level AST at 65.7 uM; type: functional
HepG2 [2] = test: Hepatoprotective activity against H2O2-induced cell death in human HepG2 cells assessed as elevated level ALT at 65.7 uM; type: functional
Rattus norvegicus [3] = test: Hepatoprotective activity in CCl4-induced rat model assessed as elevated level of bilirubin at 20 mg/kg relative to control; type: functional
Rattus norvegicus [4] = test: Hepatoprotective activity in CCl4-induced rat model assessed as elevated level of bilirubin at 10 mg/kg relative to control; type: functional
Rattus norvegicus [5] = test: Hepatoprotective activity in CCl4-induced rat model assessed as elevated level of GOT at 10 mg/kg relative to control; type: functional
Rattus norvegicus [6] = test: Hepatoprotective activity in CCl4-induced rat model assessed as elevated level of ALP at 20 mg/kg relative to control; type: functional
Rattus norvegicus [7] = test: Hepatoprotective activity in CCl4-induced rat model assessed as elevated level of GPT at 10 mg/kg relative to control; type: functional
Rattus norvegicus [8] = test: Hepatoprotective activity in CCl4-induced rat model assessed as elevated level of GPT at 20 mg/kg relative to control; type: functional
Rattus norvegicus [9] = test: Hepatoprotective activity in CCl4-induced rat model assessed as elevated level of ALP at 10 mg/kg relative to control; type: functional
Rattus norvegicus [10] = test: Hepatoprotective activity in CCl4-induced rat model assessed as elevated level of GOT at 20 mg/kg relative to control; type: functional
Mus musculus = test: Hepatoprotective activity in mouse model of D-GaIN/LPS-induced liver injury assessed as inhibition of beta-glucuronidase secretion at […] relative to control; type: functional; design: scale not given: the % may be the effect or the level left; settings: dose 10 µg/ml
[11] = Antiproliferative activity against rat HSC-T6 assessed as reduction in cell viability at 100 uM measured at 48 hrs by MTT assay relative to control; type: functional
[12] = Hepatotoxicity in CCl4-induced liver damage in ICR mouse model assessed as reduction in sGOT level at 10 mg/kg relative to control; type: toxicity, organism-based; design: scale not given: the % may be the effect or the level left; settings: in vivo
[13] = Hepatotoxicity in CCl4-induced liver damage in ICR mouse model assessed as reduction in sGPT level at 10 mg/kg relative to control; type: toxicity, organism-based; design: scale not given: the % may be the effect or the level left; settings: in vivo

C[C@H]1C(=O)CC[C@@H]2[C@]1(C)CC[C@H]1[C@@]2(C)CC[C@@]2(C)[C@@H]3CC(C)(C)CC[C@]3(C)CC[C@]12C [FRIEDELINE]
Activity (HepG2 [1]): 67.5% | Activity (HepG2 [2]): 30.8%

CC(C)[C@@H]1CC[C@@H]2C3=CC[C@@H]4[C@@]5(C)CC[C@@H](O)C(C)(C)[C@@H]5CC[C@@]4(C)[C@]3(C)CC[C@]21C(=O)O
Activity (Rattus norvegicus [3]): 24% | Activity (Rattus norvegicus [4]): 30% | Activity (Rattus norvegicus [5]): 13% | Activity (Rattus norvegicus [6]): 32% | Activity (Rattus norvegicus [7]): 24% | Activity (Rattus norvegicus [8]): 13% | Activity (Rattus norvegicus [9]): 5% | Activity (Rattus norvegicus [10]): 21%

CC(C)=CCC[C@]1(C)CC[C@]2(C)[C@H]3CC=C4[C@@H](CC[C@H](O)C4(C)C)[C@]3(C)CC[C@@]2(C)C1
Activity (Mus musculus): 57%

C[C@H]1[C@@H](O)CC[C@@H]2[C@]1(C)CC[C@H]1[C@@]2(C)CC[C@@]2(C)[C@@H]3CC(C)(C)CC[C@]3(C)CC[C@]12C [EPIFRIEDELINOL]
Activity [11]: 61%

C=C(C)[C@@H]1CC[C@]2(C)CC[C@]3(C)[C@H](CC[C@@H]4[C@@]5(C)CC[C@@H](OC(=O)CCCCCCCCCCCCCCC)C(C)(C)[C@@H]5CC[C@]43C)[C@@H]12
Activity [12]: 9.2% | Activity [13]: 6.9%
